From BindingDB's records for patent US12226414 (Suzhou Zanrong Pharma, 2025)

Target: Serine/threonine-protein kinase ATR (Homo sapiens, UniProt Q13535)
Assay: ATR Biochemical Potency Assay
Experimental: ATR enzyme was made by ChemPartner (batch: CP-ATR-20161102-M2). 2× enzyme solutions were prepared in 1× kinase base buffer. 10 μl of 2× enzyme solution (final concentration: 2.5 nM) was added to each well of the 384-well assay plate containing 60 nl compound in each well. The plate was incubated at room temperature for 10 minutes. 2× peptide solutions were prepared with FAM-labeled peptide and ATP in the 1× kinase base buffer. 10 μl of 2× peptide solution was added to each well of the 384-well assay plate, which was incubated at 28° C. for 240 min. 40 μl of stop buffer was added to stop reaction. Data were collected by Caliper.

Serine/threonine-protein kinase ATR, sequence (Q13535 whole entry): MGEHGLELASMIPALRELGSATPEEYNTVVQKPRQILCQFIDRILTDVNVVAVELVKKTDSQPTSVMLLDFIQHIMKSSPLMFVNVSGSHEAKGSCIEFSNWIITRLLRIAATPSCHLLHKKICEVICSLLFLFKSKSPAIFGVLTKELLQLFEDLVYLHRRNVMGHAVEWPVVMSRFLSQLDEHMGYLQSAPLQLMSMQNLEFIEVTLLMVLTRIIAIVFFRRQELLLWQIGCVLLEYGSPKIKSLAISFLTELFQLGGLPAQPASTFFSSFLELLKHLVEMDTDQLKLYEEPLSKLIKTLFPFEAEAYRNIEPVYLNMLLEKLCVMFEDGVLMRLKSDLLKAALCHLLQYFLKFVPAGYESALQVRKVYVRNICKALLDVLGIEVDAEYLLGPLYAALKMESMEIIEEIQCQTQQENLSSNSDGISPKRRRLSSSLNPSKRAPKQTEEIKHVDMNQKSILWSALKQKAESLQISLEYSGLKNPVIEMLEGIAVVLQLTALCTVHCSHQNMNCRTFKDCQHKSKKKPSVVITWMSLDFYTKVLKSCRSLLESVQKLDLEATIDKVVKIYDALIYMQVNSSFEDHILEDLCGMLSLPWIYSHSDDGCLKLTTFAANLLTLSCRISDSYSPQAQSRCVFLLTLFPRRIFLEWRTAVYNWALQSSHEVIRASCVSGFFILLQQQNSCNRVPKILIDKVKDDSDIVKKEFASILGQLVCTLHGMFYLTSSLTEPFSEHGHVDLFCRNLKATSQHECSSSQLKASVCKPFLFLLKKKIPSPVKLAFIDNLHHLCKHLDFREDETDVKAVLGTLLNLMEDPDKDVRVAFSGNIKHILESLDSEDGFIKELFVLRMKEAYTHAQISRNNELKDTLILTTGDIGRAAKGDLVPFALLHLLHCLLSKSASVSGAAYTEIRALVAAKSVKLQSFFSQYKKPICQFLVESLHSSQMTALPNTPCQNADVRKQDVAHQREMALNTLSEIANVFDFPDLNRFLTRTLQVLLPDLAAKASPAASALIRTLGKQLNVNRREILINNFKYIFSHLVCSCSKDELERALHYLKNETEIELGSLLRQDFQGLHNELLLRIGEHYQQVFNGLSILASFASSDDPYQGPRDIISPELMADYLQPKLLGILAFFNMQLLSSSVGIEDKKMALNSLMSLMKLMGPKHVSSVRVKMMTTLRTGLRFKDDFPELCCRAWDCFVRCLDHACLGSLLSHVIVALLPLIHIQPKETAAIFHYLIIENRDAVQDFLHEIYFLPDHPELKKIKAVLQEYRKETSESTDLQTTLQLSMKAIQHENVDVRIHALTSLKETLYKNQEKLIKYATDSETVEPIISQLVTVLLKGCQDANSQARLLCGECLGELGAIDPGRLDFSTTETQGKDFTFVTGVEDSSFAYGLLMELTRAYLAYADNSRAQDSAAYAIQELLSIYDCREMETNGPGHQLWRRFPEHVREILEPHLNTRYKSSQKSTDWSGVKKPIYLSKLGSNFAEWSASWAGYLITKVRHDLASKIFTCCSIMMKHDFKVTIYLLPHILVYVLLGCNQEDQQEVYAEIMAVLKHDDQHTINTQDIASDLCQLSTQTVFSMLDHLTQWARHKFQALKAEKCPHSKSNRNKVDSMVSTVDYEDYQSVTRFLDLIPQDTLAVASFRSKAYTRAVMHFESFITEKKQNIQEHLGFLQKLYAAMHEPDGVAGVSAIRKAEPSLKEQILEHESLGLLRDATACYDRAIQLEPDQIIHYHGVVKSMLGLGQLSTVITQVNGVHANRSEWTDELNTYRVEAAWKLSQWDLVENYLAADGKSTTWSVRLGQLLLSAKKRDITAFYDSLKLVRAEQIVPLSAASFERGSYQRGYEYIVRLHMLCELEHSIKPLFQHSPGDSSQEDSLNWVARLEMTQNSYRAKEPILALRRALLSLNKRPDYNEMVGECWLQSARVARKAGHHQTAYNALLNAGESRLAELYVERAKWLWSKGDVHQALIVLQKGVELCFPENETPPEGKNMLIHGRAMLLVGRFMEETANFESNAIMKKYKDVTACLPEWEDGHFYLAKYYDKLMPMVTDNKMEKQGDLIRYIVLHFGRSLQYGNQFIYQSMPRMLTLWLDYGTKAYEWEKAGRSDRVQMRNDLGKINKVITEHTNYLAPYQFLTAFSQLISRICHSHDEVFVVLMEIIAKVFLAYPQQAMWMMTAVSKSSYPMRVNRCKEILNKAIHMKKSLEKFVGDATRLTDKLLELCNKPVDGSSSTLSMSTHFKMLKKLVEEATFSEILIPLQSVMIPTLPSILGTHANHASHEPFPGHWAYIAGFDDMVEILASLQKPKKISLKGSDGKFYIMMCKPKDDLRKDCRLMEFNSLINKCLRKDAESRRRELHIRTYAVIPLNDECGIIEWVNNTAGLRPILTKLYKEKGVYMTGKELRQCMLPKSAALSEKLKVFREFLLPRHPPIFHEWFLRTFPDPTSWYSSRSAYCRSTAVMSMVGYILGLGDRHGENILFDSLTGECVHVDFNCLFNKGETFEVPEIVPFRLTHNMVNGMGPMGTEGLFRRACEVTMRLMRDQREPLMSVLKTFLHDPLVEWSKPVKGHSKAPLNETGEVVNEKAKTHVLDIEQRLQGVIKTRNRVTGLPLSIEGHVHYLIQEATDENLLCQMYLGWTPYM

| Compound | IC50 [µM] |
| --- | --- |
| CC(C)n1c(=O)n(C)c2nnc3cc(F)c(-c4ccc(OCCCN5CC[C@H](F)C5)nc4)cc3c21 [US12226414, Example 14] | > 10 |
| CC(C)n1c(=O)n(C)c2nnc3cc(F)c(-c4ccc(OCCCN5CC[C@@H](F)C5)nc4)cc3c21 [US12226414, Example 15] | > 10 |
